The text below walks through data of publication PMC5399005, “Degradation of lignin β‐aryl ether units in Arabidopsis thaliana expressing LigD, LigF and LigG from Sphingomonas paucimobilis SYK‐6” (Plant Biotechnology Journal, 2016).

SMILES strings stand for the structures.

Holding throughout (assay type): biochemical
Assay [1] addresses T1, LigD (Sphingobium sp. SYK-6, UniProt Q01198).
T1 sequence (Q01198 1-305): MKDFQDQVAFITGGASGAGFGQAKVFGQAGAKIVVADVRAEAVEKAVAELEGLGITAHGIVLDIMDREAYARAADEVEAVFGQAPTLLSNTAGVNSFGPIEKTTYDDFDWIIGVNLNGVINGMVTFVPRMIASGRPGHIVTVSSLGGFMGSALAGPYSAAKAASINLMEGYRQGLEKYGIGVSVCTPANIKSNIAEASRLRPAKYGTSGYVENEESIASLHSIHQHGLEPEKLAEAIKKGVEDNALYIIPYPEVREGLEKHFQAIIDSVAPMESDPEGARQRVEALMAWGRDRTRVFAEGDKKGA
Kind of assay: LC-MS product detection with leaf extract of transgenic Arabidopsis. Particulars: 0.5 mM GGE, 1 mM NAD+, 1 mM GSH, 100 mM phosphate pH 7.5, room temperature, 16 h; product MPHPV.

The target in assay [2] is T2, LigG (Sphingomonas paucimobilis, UniProt Q9WXJ9).
T2 construct: codon-optimised, barley alpha-amylase signal peptide added, expressed in Arabidopsis (crude leaf extract)
T2 sequence (Q9WXJ9 1-265): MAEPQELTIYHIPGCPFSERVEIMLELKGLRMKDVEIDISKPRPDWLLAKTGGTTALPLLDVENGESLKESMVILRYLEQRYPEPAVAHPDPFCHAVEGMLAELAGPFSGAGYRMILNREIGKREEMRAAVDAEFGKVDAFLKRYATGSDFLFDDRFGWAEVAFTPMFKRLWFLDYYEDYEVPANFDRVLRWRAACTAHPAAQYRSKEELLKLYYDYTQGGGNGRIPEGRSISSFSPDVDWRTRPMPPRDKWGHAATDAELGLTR
The description is as above. Conditions: GS-HPV from LigF reaction mixture, GSH, 100 mM phosphate pH 7.5.

In assay [3] the target is T3, LigF (Sphingobium sp. SYK-6, UniProt P30347).
T3 construct: also pETSTREP in E. coli BL21(DE3)
T3 sequence (P30347 1-257): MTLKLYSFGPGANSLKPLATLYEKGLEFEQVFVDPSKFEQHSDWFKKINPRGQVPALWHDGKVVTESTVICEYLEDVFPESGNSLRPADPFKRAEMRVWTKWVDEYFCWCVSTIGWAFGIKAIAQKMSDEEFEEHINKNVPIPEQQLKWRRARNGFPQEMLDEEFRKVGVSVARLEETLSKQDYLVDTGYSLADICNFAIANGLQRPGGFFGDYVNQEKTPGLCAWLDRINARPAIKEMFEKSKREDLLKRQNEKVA
Kind of assay: LC-MS product detection with leaf extract of transgenic Arabidopsis (also E. coli extract). Conditions: 0.5 mM MPHPV, 1 mM GSH, 1 mM NAD+, 100 mM phosphate pH 7.5, room temperature, 16 h; product GS-HPV.

Turning to `COc1cc(C(O)C(CO)Oc2ccccc2OC)ccc1O` (stereo not drawn) [GGE], the “LC-MS product detection with leaf extract of transgenic Arabidopsis” value in assay [1] was “GGE, MPHPV and GS‐HPV were used as a substrate to monitor the catalytic function”.
Take `COc1cc(C(=O)C(CO)SC[C@H](NC(=O)CC[C@H](N)C(=O)O)C(=O)NCC(=O)O)ccc1O` (stereo partly drawn) [GS-HPV]: the “LC-MS product detection with leaf extract of transgenic Arabidopsis” value in assay [2] is “The reaction mixture obtained contained mainly GS‐HPV and was used to test for LigG activity”.
For `COc1cc(C(=O)C(CO)Oc2ccccc2OC)ccc1O` (stereo not drawn) [S4, MPHPV], in assay [3], the “LC-MS product detection with leaf extract of transgenic Arabidopsis (also E. col)” value is listed as “produced enzymatically by incubation of MPHPV with protein extracts of Escherichia coli expressing LigF”.
